Measured values taken from publication PMC7988154, “Mechanism of substrate transport and inhibition of the human LAT1-4F2hc amino acid transporter” (Cell Discovery, 2021).

target: T1, LAT1 (SLC7A5) (Homo sapiens, UniProt Q01650); test: cryo-EM structure of the LAT1-4F2hc complex; IC50 from [3H]-L-leucine uptake in HT-29 cells; format: cell-based
T1 construct: with 4F2hc (SLC3A2)
T1 sequence (Q01650 whole entry): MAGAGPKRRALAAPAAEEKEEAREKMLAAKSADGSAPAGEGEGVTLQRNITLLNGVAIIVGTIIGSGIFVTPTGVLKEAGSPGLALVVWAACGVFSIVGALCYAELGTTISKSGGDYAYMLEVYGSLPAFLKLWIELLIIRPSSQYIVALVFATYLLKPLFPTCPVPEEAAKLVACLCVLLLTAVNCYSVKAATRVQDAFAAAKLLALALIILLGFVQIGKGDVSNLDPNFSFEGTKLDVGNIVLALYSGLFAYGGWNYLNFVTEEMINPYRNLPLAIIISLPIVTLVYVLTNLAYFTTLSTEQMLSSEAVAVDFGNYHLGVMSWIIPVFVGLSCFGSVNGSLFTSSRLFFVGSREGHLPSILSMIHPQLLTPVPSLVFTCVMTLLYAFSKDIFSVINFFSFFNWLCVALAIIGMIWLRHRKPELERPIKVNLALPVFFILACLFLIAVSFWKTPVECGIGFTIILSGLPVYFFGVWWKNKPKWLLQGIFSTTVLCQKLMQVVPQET
T1 sequence (P08195 103-630 partner): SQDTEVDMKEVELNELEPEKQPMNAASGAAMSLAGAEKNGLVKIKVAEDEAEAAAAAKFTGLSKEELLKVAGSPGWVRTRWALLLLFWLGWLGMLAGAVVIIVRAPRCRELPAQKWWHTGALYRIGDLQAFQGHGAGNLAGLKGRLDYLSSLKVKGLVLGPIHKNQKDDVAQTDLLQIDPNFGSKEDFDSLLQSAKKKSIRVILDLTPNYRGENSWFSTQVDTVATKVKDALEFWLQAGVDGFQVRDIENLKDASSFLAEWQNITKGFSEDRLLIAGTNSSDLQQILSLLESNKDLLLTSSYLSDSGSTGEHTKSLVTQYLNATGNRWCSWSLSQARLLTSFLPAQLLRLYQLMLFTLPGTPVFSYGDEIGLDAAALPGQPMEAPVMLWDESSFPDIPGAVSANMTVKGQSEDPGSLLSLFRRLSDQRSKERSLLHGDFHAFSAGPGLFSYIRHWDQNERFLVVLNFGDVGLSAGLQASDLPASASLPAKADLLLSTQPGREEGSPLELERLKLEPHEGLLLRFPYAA

| IC50 | SMILES |
| --- | --- |
| 165 nM | NC1(C(=O)O)CCc2ccc(OCc3cccc4ccccc34)cc2C1 (stereo not drawn) [JX-075] |
| 121 nM | NC1(C(=O)O)CCc2ccc(OCc3ccccc3-c3ccccc3)cc2C1 (stereo not drawn) [JX-078] |
| 234 nM | NC1(C(=O)O)CCc2ccc(OCc3ccccc3-c3nc4ccccc4o3)cc2C1 (stereo not drawn) [JX-119] |
